From article PMC3953482, “Fha Interaction with Phosphothreonine of TssL Activates Type VI Secretion in Agrobacterium tumefaciens” (PLoS Pathogens, 2014)
Entries after “also recorded” stand apart in the source; their conditions may differ. Non-standard residues stand in square brackets, D forms with d. No end group written: not given here. pT = C[C@@H](OP(=O)(O)O)[C@H](N)C(=O)O

Tests used:
Fha7-267^WT = assay: Isothermal titration calorimetry (ITC) of TssL/CHK2 peptides with Fha7-267^WT; assay type: binding, A. tumefaciens; details: 25°C, 50 mM Tris-HCl (pH 8.0), 150 mM NaCl, 200 µM protein in cell, 6 mM peptide in syringe, result in words
Source text: Because FHA domains are well known to bind to pThr residues specifically [33]–[35], we hypothesized that Fha specifically binds Thr 14-phosphorylated TssL to activate type VI secretion. To test this hypothesis, we first performed isothermal titration calorimetry (ITC) analysis with purified Fha proteins and synthetic phosphorylated- and unphosphorylated TssL N-terminal peptides. Because of the instability of full-length Fha protein purified from E. coli (data not shown), we purified truncated Fha proteins with different lengths for the ITC experiments (Figure S6A). […] The binding affinity was ∼3-fold higher (Kd 0.54±0.07 mM) with a longer phosphorylated TssL peptide (DNPSSWQDLPpTVVEITEESR, p-TssL^20 mer) (Figure 6B). […] (Figure 6C, 6E).
Figure 6 Phosphorylated TssL is a direct binding partner of Fha. Isothermal titration calorimetry (ITC) of specific binding between Fha and TssL peptides. […]
ITC analysis was used to determine the binding affinity and stoichiometry between Fha and TssL T-14 peptide with use of the MicroCal iTC200 system (GE Healthcare) and analyzed with ORIGIN software. […] The titration heat was calculated to eliminate the effect of heat generated from titrating the ligand into buffer. […]

Fha7-309^WT = assay: Isothermal titration calorimetry (ITC) of TssL peptides with Fha7-309^WT; assay type: binding, A. tumefaciens; details: 25°C, 50 mM Tris-HCl (pH 8.0), 150 mM NaCl, 200 µM protein in cell, 6 mM peptide in syringe, result in words
Protocol: ITC analysis was used to determine the binding affinity and stoichiometry between Fha and TssL T-14 peptide with use of the MicroCal iTC200 system (GE Healthcare) and analyzed with ORIGIN software. Truncated His-tagged Fha^7–267 and Fha^7–309 proteins were overexpressed and purified from E. coli BL21(DE3) as described. The proteins and various synthetic peptides were dissolved in buffer containing 50 mM Tris-HCl (pH 8.0), 150 mM NaCl. Synthetic phosphorylated TssL (DLPpTVVEI, p-TssL^8 mer; DNPSSWQDLPpTVVEITEESR, p-TssL^20 mer), unphosphorylated TssL (DLPTVVEI, TssL^8 mer), and phosphorylated CHK2 (VSpTQEL, p-CHK2^6 mer) peptides, were used to titrate the various Fha^7–267 or Fha^7–309 proteins at 25°C with a total 25 times of injections with 200 µM protein in the sample cell and 6 mM peptide in the injection syringe. The titration heat was calculated to eliminate the effect of heat generated from titrating the ligand into buffer. […]
Supplementary file ppat.1003991.s006.tif: Figure S6 SDS-PAGE analysis of purified Fha proteins and isothermal titration calorimetry (ITC) analysis. […] Five µg of purified Fha proteins (Fha7-267^WT, Fha7-267^R30AS46A, Fha7-309^WT) was analyzed by 12% SDS-PAGE and stained by Coomassie blue to ensure protein purity. […]

[1] = biological target: Fha7-267^WT (truncated His-tagged Fha with the intact FHA domain) (Agrobacterium tumefaciens C58); assay: ITC; MicroCal iTC200; 200 µM Fha protein in the sample cell, 6 mM peptide in the injection syringe, 25 injections, 25°C, 50 mM Tris-HCl (pH 8.0), 150 mM NaCl; One Set of Sites model with the N value fixed at 1
[2] = biological target: Fha7-309^WT (longer version of the truncated Fha protein) (Agrobacterium tumefaciens C58); assay: as above

Molecule: VSpTQEL [p-CHK2^6 mer, 6 mer phosphorylated CHK2 peptide (VSpTQEL), control, reference compound]
- equilibrium dissociation constant (Kd), binding not detectable (Fha7-267^WT): could not detect the binding affinity; also recorded: Undetectable

Molecule: DLPTVVEI [TssL^8 mer, synthetic unphosphorylated TssL peptide (DLPTVVEI)]
- binding affinity, not detectable (Fha7-309^WT): undetectable
- equilibrium dissociation constant (Kd), binding not detectable (Fha7-267^WT): could not detect the binding affinity; also recorded: Undetectable

Molecule: DLP[pT]VVEI [8 mer phosphorylated TssL peptide (DLPpTVVEI)]
- Kd [1]: 1.58 mM
- Kd [2]: 2.15 mM

Molecule: DNPSSWQDLP[pT]VVEITEESR [20 mer phosphorylated TssL peptide (…p…)]
- Kd [1]: 0.54 mM
